Tested on: norovirus VLPs (GII.4, GII.3, GII.17)
Assay: In vitro selection by cDNA display against VLPs with appearance frequency analysis of sequences
Conditions: count among peptide aptamer sequences obtained after in vitro selection cycles (7 cycles GII.4, 5 cycles GII.3 and GII.17)

| Substance | Appearance Frequency |
| --- | --- |
| 106 (FPTGTT; Designed peptide) [compound 106] | 7 |
| 107 (FRECLY; Designed peptide) [compound 107] | 7 |
| 108 (FWHARL; Designed peptide) [compound 108] | 7 |
| 109 (GCHYQF; Designed peptide) [compound 109] | 7 |
| 110 (GFAISR; Designed peptide) [compound 110] | 7 |
| 111 (GGGVTT; Designed peptide) [compound 111] | 7 |
| 112 (GHFDAR; Designed peptide) [compound 112] | 7 |
| 113 (GMSCGI; Designed peptide) [compound 113] | 7 |
| 114 (GSLDIM; Designed peptide) [compound 114] | 7 |
| 115 (GVNSGH; Designed peptide) [compound 115] | 7 |
| 116 (HHRLHG; Designed peptide) [compound 116] | 7 |
| 117 (HHYRGL; Designed peptide) [compound 117] | 7 |
| 118 (HSSFSS; Designed peptide) [compound 118] | 7 |
| 119 (HYRSKS; Designed peptide) [compound 119] | 7 |
| 120 (IGKGMV; Designed peptide) [compound 120] | 7 |
| 121 (ILISSC; Designed peptide) [compound 121] | 7 |
| 122 (ISRRGH; Designed peptide) [compound 122] | 7 |
| 123 (KRGGMV; Designed peptide) [compound 123] | 7 |
| 124 (KVHGST; Designed peptide) [compound 124] | 7 |
| 125 (LASMWR; Designed peptide) [compound 125] | 7 |
| 126 (LFHPWV; Designed peptide) [compound 126] | 7 |
| 127 (LISRHD; Designed peptide) [compound 127] | 7 |
| 128 (LWNMYD; Designed peptide) [compound 128] | 7 |
| 129 (MHSSLS; Designed peptide) [compound 129] | 7 |
| 130 (NASRFY; Designed peptide) [compound 130] | 7 |
| 131 (NHCPSR; Designed peptide) [compound 131] | 7 |

| Substance | Appearance Frequency |
| --- | --- |
| 132 (NHDVRF; Designed peptide) [compound 132] | 7 |
| 133 (NKYSHR; Designed peptide) [compound 133] | 7 |
| 134 (NPKAHL; Designed peptide) [compound 134] | 7 |
| 135 (NRHLDP; Designed peptide) [compound 135] | 7 |
| 136 (PVLHLH; Designed peptide) [compound 136] | 7 |
| 137 (QDRVTS; Designed peptide) [compound 137] | 7 |
| 138 (QLHRHK; Designed peptide) [compound 138] | 7 |
| 139 (RFLMRH; Designed peptide) [compound 139] | 7 |
| 140 (RFVKRR; Designed peptide) [compound 140] | 7 |
| 141 (RHKVHH; Designed peptide) [compound 141] | 7 |
| 142 (RIVGSA; Designed peptide) [compound 142] | 7 |
| 143 (RRCKLL; Designed peptide) [compound 143] | 7 |
| 144 (RRGDNY; Designed peptide) [compound 144] | 7 |
| 145 (RRRTFH; Designed peptide) [compound 145] | 7 |
| 146 (RSAAGD; Designed peptide) [compound 146] | 7 |
| 147 (RSSSGR; Designed peptide) [compound 147] | 7 |
| 148 (RTGLLS; Designed peptide) [compound 148] | 7 |
| 149 (SDRVIA; Designed peptide) [compound 149] | 7 |
| 150 (STVRHR; Designed peptide) [compound 150] | 7 |
| 151 (STYRSW; Designed peptide) [compound 151] | 7 |
| 152 (SWPFCT; Designed peptide) [compound 152] | 7 |
| 153 (TTKYMW; Designed peptide) [compound 153] | 7 |
| 154 (TVLHHR; Designed peptide) [compound 154] | 7 |
| 155 (VMVGPS; Designed peptide) [compound 155] | 7 |
| 156 (VRNLVH; Designed peptide) [compound 156] | 7 |
| 157 (VRPSNG; Designed peptide) [compound 157] | 7 |

| Substance | Appearance Frequency |
| --- | --- |
| 158 (VWYWTS; Designed peptide) [compound 158] | 7 |
| 159 (VYFIPD; Designed peptide) [compound 159] | 7 |
| 160 (WAGHRH; Designed peptide) [compound 160] | 7 |
| 161 (WVYARR; Designed peptide) [compound 161] | 7 |
| 162 (YRARMS; Designed peptide) [compound 162] | 7 |
| 163 (AFDGLG; Designed peptide) [compound 163] | 6 |
| 164 (AKQRFT; Designed peptide) [compound 164] | 6 |
| 165 (ARNHGS; Designed peptide) [compound 165] | 6 |
| 166 (ATITVW; Designed peptide) [compound 166] | 6 |
| 167 (CLHFAL; Designed peptide) [compound 167] | 6 |
| 168 (DKVCKN; Designed peptide) [compound 168] | 6 |
| 169 (DRWGSK; Designed peptide) [compound 169] | 6 |
| 170 (DSKLHN; Designed peptide) [compound 170] | 6 |
| 171 (DWPYSR; Designed peptide) [compound 171] | 6 |
| 172 (ECHHVH; Designed peptide) [compound 172] | 6 |
| 173 (EEKTRR; Designed peptide) [compound 173] | 6 |
| 174 (FGFREL; Designed peptide) [compound 174] | 6 |
| 175 (FPFYHR; Designed peptide) [compound 175] | 6 |
| 176 (FQYAHW; Designed peptide) [compound 176] | 6 |
| 177 (FTQDAV; Designed peptide) [compound 177] | 6 |
| 178 (GAKELS; Designed peptide) [compound 178] | 6 |
| 179 (GCLSHH; Designed peptide) [compound 179] | 6 |
| 180 (GFGQWI; Designed peptide) [compound 180] | 6 |
| 181 (GKVTFD; Designed peptide) [compound 181] | 6 |
| 182 (GLLIPF; Designed peptide) [compound 182] | 6 |
| 183 (GMDLRS; Designed peptide) [compound 183] | 6 |

| Substance | Appearance Frequency |
| --- | --- |
| 184 (GPCNSA; Designed peptide) [compound 184] | 6 |
| 185 (GRNAGR; Designed peptide) [compound 185] | 6 |
| 186 (HDSRIR; Designed peptide) [compound 186] | 6 |
| 187 (HDYVSE; Designed peptide) [compound 187] | 6 |
| 188 (HFRRRV; Designed peptide) [compound 188] | 6 |
| 189 (HHNAPI; Designed peptide) [compound 189] | 6 |
| 190 (HKASHW; Designed peptide) [compound 190] | 6 |
| 191 (HLAHKK; Designed peptide) [compound 191] | 6 |
| 192 (HLGFHT; Designed peptide) [compound 192] | 6 |
| 193 (HMMSRL; Designed peptide) [compound 193] | 6 |
| 194 (HQTGRL; Designed peptide) [compound 194] | 6 |
| 195 (HSSLVT; Designed peptide) [compound 195] | 6 |
| 196 (HVGLDK; Designed peptide) [compound 196] | 6 |
| 197 (HWLRSV; Designed peptide) [compound 197] | 6 |
| 198 (HYRARY; Designed peptide) [compound 198] | 6 |
| 199 (IGRTFH; Designed peptide) [compound 199] | 6 |
| 200 (IHSPQK; Designed peptide) [compound 200] | 6 |
| 201 (IKAHTR; Designed peptide) [compound 201] | 6 |
| 202 (ILTHQH; Designed peptide) [compound 202] | 6 |
| 203 (ITLIDT; Designed peptide) [compound 203] | 6 |
| 204 (KACAHL; Designed peptide) [compound 204] | 6 |
| 205 (KHAWDL; Designed peptide) [compound 205] | 6 |
| 206 (KSMNNG; Designed peptide) [compound 206] | 6 |

Reference: US20220221458A1, “NOROVIRUS-BINDING PEPTIDE” (Kao Corporation, priority 2019, published 2022)
